Here are results for 3 compounds from ChEMBL document CHEMBL4007424, “Design and Synthesis of Enantiomerically Pure Decahydroquinoxalines as Potent and Selective κ-Opioid Receptor Agonists with Anti-Inflammatory Activity in Vivo” (J Med Chem, 2017).

Calls of active or inactive are those of the source. No cut-off for these calls is given here.

Data set [1] addresses Kappa-type opioid receptor (Homo sapiens, UniProt P41145). Description: Agonist activity at recombinant human kappa-type opioid receptor expressed in HEK293 cells after 30 mins by [35S]GTPgammaS binding assay. Format: functional, cell-based. Background: Binding of GTPγS marks nucleotide exchange on a G protein.
Data set [2] concerns Mus musculus. Description: Antiinflammatory activity in arachidonic acid-induced ear dermatitis ICR mouse model assessed as reduction in ear swelling at 0.3 mg administered twice tropically 30 mins prior and 15 mins after arachidonic acid addition measured 60 mins post arachidonic acid challenge relative to control. Format: functional.
The subject of data set [3] is Mus musculus. Description: Antiinflammatory activity in arachidonic acid-induced ear dermatitis ICR mouse model assessed as reduction in ear swelling at 1 mg administered twice tropically 30 mins prior and 15 mins after arachidonic acid addition measured 60 mins post arachidonic acid challenge relative to control. Format: functional.
Data set [4] concerns Mus musculus. As to the kind of experiment: Antiinflammatory activity in arachidonic acid-induced ear dermatitis ICR mouse model assessed as reduction in ear swelling at 0.1 mg administered twice tropically 30 mins prior and 15 mins after arachidonic acid addition measured 60 mins post arachidonic acid challenge relative to control. Format: functional.
In data set [5] the test system is Mus musculus. As to the kind of experiment: Toxicity in arachidonic acid-induced ear dermatitis ICR mouse model assessed as induction of modest to severe behaviour depression at 0.1 mg to 3 mg administered twice tropically 30 mins prior and 15 mins after arachidonic acid addition measured 60 mins post arachidonic acid challenge. Particulars: in vivo, topical_or_ocular, 1 h.

The subject of data set [6] is Mus musculus. Description: Antiinflammatory activity in arachidonic acid-induced ear dermatitis ICR mouse model assessed as reduction in ear swelling at 3 mg administered twice tropically 30 mins prior and 15 mins after arachidonic acid addition measured 60 mins post arachidonic acid challenge relative to control. Format: functional.
A short description of data set [7]: Displacement of [3H]DPDPE from delta-type opioid receptor in guinea pig brain membranes after 120 mins by solid scintillation counting. In kind it is cell membranes, Cavia porcellus, Membrane. (In a radioligand displacement assay an active substance lowers the binding of a labelled ligand.)
In data set [8] the target is Kappa-type opioid receptor (Cavia porcellus, UniProt P41144). Description: Displacement of [3H]U-69,593 from kappa-type opioid receptor in guinea pig brain membranes after 120 mins by solid scintillation counting. Format: cell membranes, Membrane.
The nature of data set [9]: Plasma concentration in Wistar Han rat at 0.3 mg/kg, iv measured 0.25 hrs post compound administration. Format: ADME, organism-based.
Data set [10] concerns Rattus norvegicus. Description: Toxicity in Wistar Han rat assessed as induction of hunched or abnormal posture at 0.3 mg/kg, iv measured up to 2 hrs. Format: organism-based. The note with it: in vivo.
Data set [11] is described as follows: Plasma concentration in Wistar Han rat at 0.3 mg/kg, iv measured 1 hr post compound administration. In kind it is ADME, organism-based.
Data set [12] is described as follows: Drug level in Wistar Han rat brain at 0.3 mg/kg, iv measured 1 hr post compound administration. In kind it is ADME, organism-based. Particulars: read-out: Drug uptake.
Data set [13] can be described thus: Ratio of drug level in brain to plasma in Wistar Han rat at 0.3 mg/kg, iv after 0.25 hrs. Format: ADME, organism-based. The note with it: read-out: BPR.
Data set [14] can be described thus: Ratio of drug level in brain to plasma in Wistar Han rat at 0.3 mg/kg, iv after 1 hr. In kind it is ADME, organism-based. The note with it: read-out: BPR.
In data set [15] the test system is Rattus norvegicus. As to the kind of experiment: Toxicity in Wistar Han rat assessed as induction of lethargy at 0.3 mg/kg, iv measured up to 2 hrs. Format: organism-based. The note with it: in vivo.
Data set [16] deals with Mus musculus. Description: Antiinflammatory activity in oxazolone-induced delayed type hypersensitivity BALB/c mouse model assessed as ear thickness level at 0.6 mg applied topically on ear administered 3 hrs prior to oxazolone challenge on day 7 to 12 post sensitization followed by re-administration of compound on day 13 to 18 without oxazolone challenge measured on day 19 by H and E staining based assay. In kind it is functional.

The test system of data set [17] is Mus musculus. Description: Antiinflammatory activity in oxazolone-induced delayed type hypersensitivity BALB/c mouse model assessed as ear swelling at 0.6 mg applied topically on ear administered 3 hrs prior to oxazolone challenge on day 7 to 12 post sensitization followed by re-administration of compound on day 13 to 18 without oxazolone challenge measured on day 13 (reference value: 666 +/- 28 micrometer). Format: functional.

The test system of data set [18] is Mus musculus. As to the kind of experiment: Antiinflammatory activity in oxazolone-induced delayed type hypersensitivity BALB/c mouse model assessed as neutrophil dermal infiltration at 0.6 mg applied topically on ear administered 3 hrs prior to oxazolone challenge on day 7 to 12 post sensitization followed by re-administration of compound on day 13 to 18 without oxazolone challenge measured on day 19 by H and E staining based assay. In kind it is functional.

Data set [19] relates to Mus musculus. Description: Antiinflammatory activity in oxazolone-induced delayed type hypersensitivity BALB/c mouse model assessed as ear swelling at 0.6 mg applied topically on ear administered 3 hrs prior to oxazolone challenge on day 7 to 12 post sensitization followed by re-administration of compound on day 13 to 18 without oxazolone challenge measured on day 19 (reference value: 242 +/- 11 micrometer). Format: functional.

In data set [20] the test system is Mus musculus. Description: Antiinflammatory activity in oxazolone-induced delayed type hypersensitivity BALB/c mouse model assessed as mast cell dermal infiltration at 0.6 mg applied topically on ear administered 3 hrs prior to oxazolone challenge on day 7 to 12 post sensitization followed by re-administration of compound on day 13 to 18 without oxazolone challenge measured on day 19 by H and E staining based assay. Format: functional.

Data set [21] concerns Mus musculus. As to the kind of experiment: Antiinflammatory activity in oxazolone-induced delayed type hypersensitivity BALB/c mouse model assessed as lymphocyte dermal infiltration at 0.6 mg applied topically on ear administered 3 hrs prior to oxazolone challenge on day 7 to 12 post sensitization followed by re-administration of compound on day 13 to 18 without oxazolone challenge measured on day 19 by H and E staining based assay. Format: functional.

The subject of data set [22] is Mus musculus. As to the kind of experiment: Antiinflammatory activity in oxazolone-induced delayed type hypersensitivity BALB/c mouse model assessed as ear weight at 0.6 mg applied topically on ear administered 3 hrs prior to oxazolone challenge on day 7 to 12 post sensitization followed by re-administration of compound on day 13 to 18 without oxazolone challenge measured on day 19 (reference value: 30.2 +/- 0.7 mg). Format: functional.

For data set [23], the system named is Mus musculus. As to the kind of experiment: Antiinflammatory activity in oxazolone-induced delayed type hypersensitivity BALB/c mouse model assessed as hyperplastic epidrmis at 0.6 mg applied topically on ear administered 3 hrs prior to oxazolone challenge on day 7 to 12 post sensitization followed by re-administration of compound on day 13 to 18 without oxazolone challenge measured on day 19 by H and E staining based assay. In kind it is functional.

Sequence of Kappa-type opioid receptor (Homo sapiens, UniProt P41145) (P41145 whole entry): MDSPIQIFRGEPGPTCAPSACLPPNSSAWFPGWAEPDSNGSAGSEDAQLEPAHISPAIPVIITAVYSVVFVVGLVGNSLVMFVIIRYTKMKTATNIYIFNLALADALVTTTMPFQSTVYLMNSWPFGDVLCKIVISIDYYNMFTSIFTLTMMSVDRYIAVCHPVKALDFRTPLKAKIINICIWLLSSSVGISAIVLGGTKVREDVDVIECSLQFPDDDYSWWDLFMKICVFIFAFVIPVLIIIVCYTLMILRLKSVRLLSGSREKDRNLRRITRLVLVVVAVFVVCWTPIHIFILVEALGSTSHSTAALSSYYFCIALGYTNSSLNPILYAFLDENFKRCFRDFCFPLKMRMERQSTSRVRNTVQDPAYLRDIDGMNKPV
Sequence of Kappa-type opioid receptor (Cavia porcellus, UniProt P41144) (P41144 whole entry): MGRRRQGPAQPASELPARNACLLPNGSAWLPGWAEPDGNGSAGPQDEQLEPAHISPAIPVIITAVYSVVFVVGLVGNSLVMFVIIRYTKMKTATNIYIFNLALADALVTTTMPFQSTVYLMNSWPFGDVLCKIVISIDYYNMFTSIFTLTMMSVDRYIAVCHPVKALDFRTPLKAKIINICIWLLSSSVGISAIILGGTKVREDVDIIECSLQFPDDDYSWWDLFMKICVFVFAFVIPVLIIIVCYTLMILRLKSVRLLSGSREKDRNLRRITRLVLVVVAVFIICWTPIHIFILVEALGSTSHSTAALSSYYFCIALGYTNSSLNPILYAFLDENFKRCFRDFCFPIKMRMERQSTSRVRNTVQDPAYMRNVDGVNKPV

Turning to `COC(=O)N1CCN(C(=O)Cc2ccc(F)c(Cl)c2)[C@@H]2[C@@H](N3CC[C@H](F)C3)CCC[C@@H]21`, the EC50 (commonly the concentration that produces a half-maximal response) in data set [1] is 400 pM. The “inhibition (INH)” value in data set [2] worked out at 40%; in [3], 66%; in [4], 25%; in data set [6], 60%. For the same compound, in [5], the Activity entry is “Toxic”. In addition, the results for the Ki in data set [7] and in data set [8] were 74000 pM and 560 pM, respectively.

Turning to `COC(=O)N1CCN(C(=O)Cc2ccc(Cl)c(Cl)c2)[C@@H]2[C@@H](N3CCCC3)CCC[C@@H]21.Cl`, the concentration at 0.25 h in data set [9] was found to be 117 ng/mL. In addition, the Activity result in data set [10] and in data set [15] was “Toxic” throughout. Also, the concentration at 1 h in data set [11] amounted to 37.3 ng/mL; in data set [12], 24.2 ng/g. Also, in data set [13], the Kp at 0.25 h worked out at 0.5. The Kp at 1 h in data set [14] turned out to be 0.65.

For `C[C@]12CCC(=O)C=C1CC[C@@H]1[C@@H]2[C@@H](O)C[C@@]2(C)[C@H]1CC[C@]2(O)C(=O)CO` [HYDROCORTISONE], the result in [16], in [18], in data set [20], in data set [21] and in [23] was Active. For the same compound, the Activity in [17] turned out to be 332 um; in data set [19], 66 um; in data set [22], 17.2 mg.
